{"source": "patent US20240016814A1", "about": "“METHOD OF TREATING HYPERTENSION” (Cipla Limited, priority 2017, published 2024)", "key": {"[1]": {"settings": "cited from earlier work"}, "[2]": {"system": "rats with monocrotaline induced pulmonary arterial hypertension", "assay": "Monocrotaline rat model for pulmonary arterial hypertension (Example 1, dosing Day 1 to 28)", "format": "in vivo, Male Sprague-Dawley rats", "description": "The studies were conducted for hemodynamic evaluation of desipramine in anesthetized sprague dawley rats treated with monocrotaline (“MCT”) to induce pulmonary arterial hypertension. Sildenafil was used as an internal control to compare the effects of desipramine.\nThe effects of Desipramine were evaluated in rats with monocrotaline induced pulmonary arterial hypertension using sildenafil as standard care treatment. Male Sprague-Dawley rats were orally administered vehicle, Desipramine (20 mg/kg given once daily every day for 28 days starting on Day 1), or sildenafil (100 mg/kg, administered once daily every day for 28 days starting on Day 1) (n=12 in each group). Rats received a single injection of monocrotaline (50 mg/kg, s.c.) on Study Day 1. On the twenty-eighth day following monocrotaline dosing, the rats were anesthetized with ketamine/xylazine for terminal monitoring of pulmonary and systemic arterial pressures along with heart rate.\nTest Item: Vehicle (0.5% Methylcellulose+0.2% Tween 80 in deionized water. Desipramine (20 mg/kg given once daily for 28 days; Sildenafil (100 mg/kg administered once daily)\n(§1) Route of Administration: Oral\nStudy Design: The study was planned and conducted according to design depicted below in Table 1\nPulmonary arterial hypertension was induced by injecting Monocrotaline (3 mL/Kg MCT in 50% DMSO in water) subcutaneously at a dose of 50 mg/kg of body weight to all the randomized Male Sprague-Dawley rats of Groups II, III, IV and V (except negative control group). Negative control group (Group I. DMSO group) received a single dose of 3 mL/kg 50% DMSO in water for injection subcutaneously. The positive control group (Group III) received 5 ml of vehicle every morning. The rats of desipramine group (Group IV) were orally administered Desipramine (20 mg/kg given once daily for 28 days starting on Day 1) and rats of sildenafil group (Group V) were orally administered sildenafil (100 mg/kg given once daily for 28 days starting on Day 1) On the twenty-eighth day after monocrotaline dosing, the rats were anesthetized with ketamine/xylazine for terminal monitoring of pulmonary and systemic arterial pressures along with heart rate."}, "[3]": {"system": "rats with monocrotaline induced pulmonary arterial hypertension", "assay": "Monocrotaline rat model for treatment of pulmonary arterial hypertension (Example 2, dosing Day 14 till Day 28)", "format": "in vivo, Male Sprague-Dawley rats", "settings": "for % Inhibition of Fulton index: Hypertrophy (RV/LV + S) / inhibition at 30 mg/kg: positive control = 0.00; for inhibition at 30 mg/kg: Rattus norvegicus, po", "description": "The studies were conducted for hemodynamic evaluation of desipramnine in anesthetized Sprague Dawley rats treated with monocrotaline (“MCT”) to induce pulmonary arterial hypertension. Sildenafil was used as an internal control to compare the effects of desipramine. The effects of desipramine were evaluated in rats with monocrotaline induced pulmonary arterial hypertension using sildenafil as standard care treatment. Male Sprague-Dawley rats were orally administered vehicle, desipramine (30 mg/kg, given once daily every day starting on Day 14 till Day 28), or sildenafil (100 mg/kg, given once daily every day starting on Day 14 till Day 28) (n=12 in each group). Rats received a single injection of monocrotaline (50 mg/kg, s.c.) on Study Day 1. On the twenty-eighth day following monocrotaline dosing, the rats were anesthetized with ketamine/xylazine for terminal monitoring of pulmonary and systemic arterial pressures along with heart rate.\nTest Item: Vehicle (0.5% Methylcellulose+0.2% Tween 80 in deionized water. Desipramine (30 mg/kg given once daily starting on Day 14 till Day 28; Sildenafil (100 mg/kg, administered once daily starting on Day 14 till Day 28)\nas §1\nStudy Design: The study was planned and conducted according to design depicted below in Table 7\nPulmonary arterial hypertension was induced by injecting 50 mg/kg dose of monocrotaline (3 mL/Kg MCT in 50% DMSO in water) subcutaneously to all the randomized Male Sprague-Dawley rats of Groups VII, VII, IX and X (except negative control group). Negative control group (Group VI. DMSO group) received a single dose of 3 mL/kg 50% DMSO in water for injection subcutaneously. Male Sprague-Dawley rats in groups […], VII, VIII and IX and X were administered 50 mg/kg of body weight of monocrotaline in DMSO subcutaneously to induce PAH on day 1. The rats of vehicle positive control group (Group VIII) received 5 ml of vehicle every morning. The rats of desipramine group (Group IX) were orally administered desipramine (30 mg/kg given once daily starting on Day 14 till Day 28) and rats of sildenafil group (Group X) were orally administered dildenafil (100 mg/kg given once daily starting on Day 14 till Day 28). On the twenty-eighth day after monocrotaline dosing, the rats were anesthetized with ketamine/xylazine for terminal monitoring of pulmonary and systemic arterial pressures along with heart rate. It is understood that from day 1 till administration of test compounds i.e., until day 14, rates of all groups were suffering from PAH due to administration of MCT. Thus the study was conducted to evaluate the efficacy of desipramine treatment for PAH. Sildenafil was used as an internal control to compare the effects of desipramine."}, "[4]": {"settings": "group mean, Desipramine 20 mg/Kg p.o. QD Day 1-28, Day 28"}, "[5]": {"settings": "individual animals, Desipramine 20 mg/Kg p.o. QD Day 1-28, Day 28"}, "[6]": {"settings": "group mean, Desipramine 30 mg/Kg p.o. QD Day 14 till Day 28, Day 28"}, "[7]": {"settings": "individual animals, Desipramine 30 mg/Kg p.o. QD Day 14 till Day 28, Day 28"}}, "note": "“And” between values parts separate entries of the source, which are not always exact repeats. Equal values may be shown once. Where a name gives a salt, the structure may show the parent alone. Read-outs that look alike come from different tables or passages of the source.", "data": [{"smiles": "CNCCCN1c2ccccc2CCc2ccccc21", "note": "[Desipramine hydrochloride]", "values": [{"measurement": "time at which peak plasma concentrations are attained", "setting": "[1]; following oral administration", "value": "4 to 6", "unit": "h"}, {"measurement": "absorption from the gastrointestinal tract", "setting": "[1]; in vivo", "value": "rapidly and almost completely absorbed"}, {"measurement": "first-pass metabolism", "setting": "[1]; in vivo", "value": "extensive"}]}, {"smiles": "CNCCCN1c2ccccc2CCc2ccccc21", "note": "[Desipramine]", "values": [{"measurement": "systolic and mean pulmonary arterial pressures compared to the vehicle group", "setting": "[2]; after 28 days, desipramine 20 mg/kg/day once daily", "value": "differences"}, {"measurement": "activity in controlling or reducing PAH compared with Sildenafil activity", "setting": "[2]; desipramine 20 mg/kg vs sildenafil 100 mg/kg, Day 1-28", "value": "comparable"}, {"measurement": "Fulton index: Hypertrophy (RV/LV + S), Mean", "setting": "[2]; [4]", "value": 0.321}, {"measurement": "RV/Body wt (Right Ventricle/Body Weight), Mean", "setting": "[2]; [4]", "value": 0.0007}, {"measurement": "Right Ventricle (RV), Mean", "setting": "[2]; [4]", "value": 0.200, "unit": "g"}, {"measurement": "Right Ventricular Pressure (RVP), Mean", "setting": "[2]; [4]", "value": 16.241, "unit": "mmHg"}, {"measurement": "Right Ventricular Systolic Pressure (RVSP), Mean", "setting": "[2]; group mean, Desipramine 20 mg/Kg p.o. QD Day 1-28, MCT 50 mg/kg s.c., Day 28", "value": 33.154, "unit": "mmHg"}, {"measurement": "Fulton index: Hypertrophy (RV/LV + S)", "setting": "[2]; [5]", "value": "0.292 and 0.474 and 0.274 and 0.244 and 0.286 and 0.278 and 0.426 and 0.352 and 0.263"}, {"measurement": "RV/Body wt (Right Ventricle/Body Weight)", "setting": "[2]; [5]", "value": "0.0005 (4×) and 0.0012 and 0.0006 (2×) and 0.0008 (2×)"}, {"measurement": "Right Ventricle (RV)", "setting": "[2]; [5]", "value": "0.171 g and 0.272 g and 0.168 g and 0.163 g and 0.169 g (2×) and 0.289 g and 0.251 g and 0.150 g"}, {"measurement": "Right Ventricular Pressure (RVP)", "setting": "[2]; [5]", "value": "22.694 mmHg and 19.903 mmHg and 14.460 mmHg and 12.513 mmHg and 13.047 mmHg and 12.287 mmHg and 13.930 mmHg and 16.428 mmHg and 20.906 mmHg"}, {"measurement": "Right Ventricular Systolic Pressure (RVSP)", "setting": "[2]; individual animals, Desipramine 20 mg/Kg p.o. QD Day 1-28, MCT 50 mg/kg s.c., Day 28", "value": "44.096 mmHg and 40.737 mmHg and 27.834 mmHg and 26.777 mmHg and 25.403 mmHg and 26.483 mmHg and 31.091 mmHg and 37.179 mmHg and 38.785 mmHg"}, {"measurement": "% Inhibition of Fulton index: Hypertrophy (RV/LV + S)", "setting": "[3]; Desipramine 30 mg/Kg p.o. QD Day 14 till Day 28", "value": 32.07, "unit": "%"}, {"measurement": "inhibition at 30 mg/kg", "setting": "[3]; Desipramine 30 mg/Kg p.o. QD Day 14 till Day 28, read-out: % Inhibition of Right Ventricular Pressure (RVP)", "value": 53.9, "unit": "%"}, {"measurement": "inhibition at 30 mg/kg", "setting": "[3]; Desipramine 30 mg/Kg p.o. QD Day 14 till Day 28, read-out: % Inhibition of Right Ventricular Systolic Pressure (RVSP)", "value": 51.6, "unit": "%"}, {"measurement": "systolic and mean pulmonary arterial pressures compared to the vehicle group", "setting": "[3]; after 28 days, desipramine 30 mg/kg/day once daily, Day 14 till Day 28", "value": "differences"}, {"measurement": "activity in treatment of PAH compared with Sildenafil activity", "setting": "[3]; desipramine 30 mg/kg vs sildenafil 100 mg/kg, Day 14 till Day 28", "value": "comparable"}, {"measurement": "Fulton index: Hypertrophy (RV/LV + S), Mean", "setting": "[3]; [6]", "value": 0.376}, {"measurement": "Right Ventricle weight, Mean", "setting": "[3]; [6]", "value": 0.250, "unit": "gms"}, {"measurement": "Right Ventricular Pressure (RVP), Mean", "setting": "[3]; [6]", "value": 15.796, "unit": "mmHg"}, {"measurement": "Right Ventricular Systolic Pressure (RVSP), Mean", "setting": "[3]; [6]", "value": 33.248, "unit": "mmHg"}, {"measurement": "Right ventricle/Body weight, Mean", "setting": "[3]; [6]", "value": 0.0007}, {"measurement": "Fulton index: Hypertrophy (RV/LV + S)", "setting": "[3]; [7]", "value": "0.404 and 0.426 and 0.430 and 0.333 and 0.288"}, {"measurement": "Right Ventricle weight", "setting": "[3]; [7]", "value": "0.252 gms and 0.274 gms and 0.340 gms and 0.205 gms and 0.181 gms"}, {"measurement": "Right Ventricular Pressure (RVP)", "setting": "[3]; [7]", "value": "14.133 mmHg and 19.618 mmHg and 19.346 mmHg and 15.432 mmHg and 10.448 mmHg"}, {"measurement": "Right ventricle/Body weight", "setting": "[3]; [7]", "value": "0.0008 (2×) and 0.0010 and 0.0006 and 0.0005"}, {"measurement": "Right Ventricular Systolic Pressure (RVSP)", "setting": "[3]; individual animals, Desipramine 30 mg/Kg p.o. QD Day 14 till Day 28, MCT 50 mg/kg s.c., Day 28", "value": "30.245 mmHg and 39.927 mmHg and 38.672 mmHg and 32.210 mmHg and 25.188 mmHg"}]}, {"smiles": "CCCc1nn(C)c2c(=O)[nH]c(-c3cc(S(=O)(=O)N4CCN(C)CC4)ccc3OCC)nc12", "note": "[Sildenafil]", "values": [{"measurement": "RV/Body wt (Right Ventricle/Body Weight), Mean", "setting": "[2]; group mean, Sildenafil 100 mg/kg p.o. QD Day 1-28, Day 28", "value": 0.0006}, {"measurement": "RV/Body wt (Right Ventricle/Body Weight)", "setting": "[2]; individual animals, Sildenafil 100 mg/kg p.o. QD Day 1-28, Day 28", "value": "0.0009 and 0.0006 (4×) and 0.0007 (3×) and 0.0003"}, {"measurement": "% Inhibition of Fulton index: Hypertrophy (RV/LV + S)", "setting": "[3]; Sildenafil 100 mg/Kg p.o. QD Day 14 till Day 28", "value": 30.70, "unit": "%"}, {"measurement": "Fulton index: Hypertrophy (RV/LV + S), Mean", "setting": "[3]; group mean, Sildenafil 100 mg/Kg p.o. QD Day 14 till Day 28, Day 28", "value": 0.384}, {"measurement": "Fulton index: Hypertrophy (RV/LV + S)", "setting": "[3]; individual animals, Sildenafil 100 mg/Kg p.o. QD Day 14 till Day 28, Day 28", "value": "0.393 and 0.306 and 0.337 and 0.389 and 0.415 and 0.464"}]}]}
